Laboratory results: patent US20220168193A1, “FLEXIBLE METAL PATCH HAVING ANTIOXIDANT ACTIVITY AND BRIGHTENING EFFECT AND METHOD FOR USING SAME” (LABNPEOPLE CO., LTD., priority 2019, published 2022)

Assay: DPPH free radical scavenging activity test
Type: biochemical
Conditions: for DPPH free radical scavenge activity (%) (mean ± standard deviation): 0.2 mM DPPH 1:1, 30 min
Method: To evaluate the DPPH free radical scavenging activity of the biodegradable metal of the present invention, samples were provided to the Korea Testing & Research Institute and the test thereof was performed in a manner described below by the Korea Testing & Research Institute at the request of the inventors.
a. Test substance • Magnesium patch with a purity of 95% or more (See FIG. 1 in which the patch is provided with microneedles that are not bent). • The sample used for the test is a sheet shape (dimensions: 2.6 mm×2.4 mm, thickness 0.1 t) made of Mg with a purity of 95% or more and including unavoidable impurities generated during manufacturing thereof.
b. Positive control • L-ascorbic acid: Sigma-Aldrich Corporation, Lot No. SLBR2586V
c. Etc. • 2,2-Diphenyl-1-picrylhydrazyl (DPPH): Sigma-Aldrich Corporation, Lot No. STBH0044 • Methanol: JINSEI, Lot No. 2016G2012
a. Preparation of test substance: The provided test substance was used without conversion of purity. Methanol was used to adjust the concentration.
After weighing L-ascorbic acid, it was prepared to have a predetermined concentration using methanol.
DPPH was prepared to have a concentration of 0.2 mM using methanol.
In a 96-well plate, each of the preparations (test substance and positive control substance) having different concentrations was mixed with a combination of 0.2 mM DPPH and methanol in a mixing ratio of 1:1.
After reacting at room temperature for 30 minutes in a light-shielding state, centrifugation was performed to obtain a supernatant, and absorbance was measured at a wavelength of 517 nm.
The free radical scavenger activity (%) of DPPH was calculated using Equation 1 below.
DPPH radical scavenging activity(%)=1−(A/B)×100 <Equation 1>
In Equation 1, A is the absorbance of the test substance, and B is the absorbance of the blank sample.
The result of each test was measured three times to obtain the mean value and standard deviation, and statistical analysis was performed using the SPSS statistical program (Ver. 19.0). First, after performing Levene's test, a one-way ANOVA test was performed. When significance was confirmed among the test groups, a post-hoc test was performed depending on the presence or absence of homogeneity of variances (when the variances are homogeneous, Duncan's multiple test was performed whereas when the variances were heterogeneous, Dunnett's T3 was performed).

O=C1O[C@H]([C@@H](O)CO)C(O)=C1O [L-ascorbic acid]
DPPH free radical scavenge activity (%) (mean ± standard deviation) (concentration 0.0005%): 20.96%
DPPH free radical scavenge activity (%) (mean ± standard deviation) (concentration 0.001%): 40.38%
DPPH free radical scavenge activity (%) (mean ± standard deviation) (concentration 0.0015%): 65.57%
DPPH free radical scavenge activity (%) (mean ± standard deviation) (concentration 0.002%): 83.24%
IC50 (concentration at which 50% activity is exhibited), DPPH scavenging (methanol solution): 0.0012%
